Results taken from patent US20150225404A1, “PYRIDINE DERIVATIVE AND MEDICINE” (NIPPON SHINYAKU CO., LTD., priority 2012, published 2015).
Where a name gives a salt, the structure may show the parent alone.

Molecular target: T1, human mGluR5 (Homo sapiens, UniProt P41594)
T1 construct: expressed in transfected cells
Assay: Experiment for receptor function of mGluR5 (Ca2+-dependent fluorescence, FLIPR, CHO-K1 cells stably expressing human mGluR5)
Assay type: cell-based
Settings: L-glutamic acid 10 μM, Fluo-4 fluorescence
Protocol: Stable expression cells in which the human mGluR5 gene had been introduced into a Chinese hamster ovary cell (CHO-K1) were used for evaluation. The cells were suspended in a growth medium (MEM-α (D8042, available from Sigma) containing 10% inactivated FBS (Cat. No. 171012, available from CCB) and 2 mM glutamax (Cat. No. 35050, available from GIBCO)) and seeded on a black clear-bottom 96-well plate at 100,000 cells per well. One day after seeding, the medium was replaced by a medium (Hanks' balanced salt solution (HBSS buffer solution) (20 mM HEPES, 2.5 mM probencide (165-15472, available from Wako Pure Chemical Industries, Ltd.), and 10×HBSS (14065-056, available from Gibco) diluted 10 times, pH 7.4)) containing a calcium-sensitive dye Fluo-4 AM at a final concentration of […] (F312, available from Dojindo Laboratories) and Pluronic F-127 at a final concentration of 0.0145% (P-2443, available from Sigma), followed by incubation at 37° C. for one hour, thereby loading Fluo-4 AM into the cells.
Subsequently, the cells were washed twice with an HBSS buffer solution, to which was subsequently added the same buffer solution. Twenty minutes thereafter, the plate was transferred into a fluorescence screening system (FLIPR TETRA, available from Molecular Devices, LLC) and measured for a Ca^2+-dependent fluorescence change in the cells.
First of all, a fluorescence baseline was measured, and thereafter, fluorescence measurement was performed for 2 minutes while adding a test substance, an excessive amount of 6-methyl-2-(phenylethynyl)pyridine (hereinafter referred to as “MPEP”) (final concentration: 10 μM), or the medium. Thereafter, fluorescence measurement was carried out for one minute while adding L-glutamic acid (final concentration: 10 μM).
While taking a fluorescence intensity caused by L-glutamic acid as 100% and a fluorescence intensity caused by L-glutamic acid in the presence of MPEP as 0%, respectively, function inhibitory activity against human mGluR5 was evaluated from the fluorescence intensity caused by L-glutamic acid in the presence of the test substance at each concentration, and an IC50 value was estimated according to a logistic equation (SAS System).

T1 sequence (P41594 21-1212): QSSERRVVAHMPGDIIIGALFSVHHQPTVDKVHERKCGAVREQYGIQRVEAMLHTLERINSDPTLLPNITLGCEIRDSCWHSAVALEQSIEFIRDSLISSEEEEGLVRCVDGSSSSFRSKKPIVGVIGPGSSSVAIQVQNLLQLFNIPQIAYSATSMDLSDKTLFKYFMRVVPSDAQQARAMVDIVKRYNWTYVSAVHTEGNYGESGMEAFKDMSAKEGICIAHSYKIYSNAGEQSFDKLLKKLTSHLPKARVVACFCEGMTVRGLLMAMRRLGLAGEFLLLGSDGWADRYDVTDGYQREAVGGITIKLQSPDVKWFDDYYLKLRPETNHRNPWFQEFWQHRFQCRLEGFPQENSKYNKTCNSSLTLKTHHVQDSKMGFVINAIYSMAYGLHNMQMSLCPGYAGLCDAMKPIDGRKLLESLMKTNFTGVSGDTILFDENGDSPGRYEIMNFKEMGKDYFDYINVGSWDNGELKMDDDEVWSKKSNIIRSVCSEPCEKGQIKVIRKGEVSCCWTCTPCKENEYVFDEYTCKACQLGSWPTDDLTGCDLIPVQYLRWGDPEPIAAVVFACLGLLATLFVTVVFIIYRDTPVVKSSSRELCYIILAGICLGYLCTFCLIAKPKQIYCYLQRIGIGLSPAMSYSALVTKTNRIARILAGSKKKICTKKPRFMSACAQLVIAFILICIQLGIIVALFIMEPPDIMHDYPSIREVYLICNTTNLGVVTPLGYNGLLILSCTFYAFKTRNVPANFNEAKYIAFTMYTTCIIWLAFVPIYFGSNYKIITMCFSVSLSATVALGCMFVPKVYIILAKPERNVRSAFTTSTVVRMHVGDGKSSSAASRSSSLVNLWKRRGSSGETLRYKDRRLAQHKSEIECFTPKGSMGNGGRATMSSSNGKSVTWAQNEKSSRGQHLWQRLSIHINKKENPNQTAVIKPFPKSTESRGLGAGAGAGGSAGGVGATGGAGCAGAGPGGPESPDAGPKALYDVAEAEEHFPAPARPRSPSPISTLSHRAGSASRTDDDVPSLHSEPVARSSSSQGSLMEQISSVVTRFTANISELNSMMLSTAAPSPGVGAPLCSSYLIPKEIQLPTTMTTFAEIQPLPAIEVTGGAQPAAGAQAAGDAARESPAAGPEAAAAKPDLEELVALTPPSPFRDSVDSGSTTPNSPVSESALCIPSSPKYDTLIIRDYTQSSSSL

SMILES | IC50
CCC1CCc2c(-c3cncnc3)cc(OCc3ccccn3)nc21 (stereo not drawn) [Example 240, 7-Ethyl-2-(pyridin-2-ylmethoxy)-4-(pyrimidin-5-yl)-6,7-dihydro-5H-cyclopenta[b]pyridine] | 24 nM
OCc1cncc(-c2cc(OCc3ccc(F)cc3)nc3c2CCC3)c1 [Example 248, (5-{2-[(4-Fluorobenzyl)oxy]-6,7-dihydro-5H-cyclopenta[b]pyridin-4-yl}pyridin-3-yl)methanol] | 95 nM
Cc1ncc(-c2cc(OCc3cccc(F)n3)nc3c2CCCC3)cn1 [Example 185, 2-[(6-Fluoropyridin-2-yl)methoxy]-4-(2-methylpyrimidin-5-yl)-5,6,7,8-tetrahydroquinoline] | 26 nM
Cc1nc(COc2cc(-c3cccnc3)c3c(n2)CCCC3)cs1 [Example 96, 2-[(2-Methyl-1,3-thiazol-4-yl)methoxy]-4-(pyridin-3-yl)-5,6,7,8-tetrahydroquinoline] | 56.3 nM
Nc1cccc(COc2cc(-c3cncnc3)c3c(n2)CCCC3)n1 [Example 157, 6-({[4-(Pyrimidin-5-yl)-5,6,7,8-tetrahydroquinolin-2-yl]oxy}methyl)pyridin-2-amine] | 333 nM
Nc1ncc(-c2cc(OCc3cccc(F)c3)nc3c2CCC3)cn1 [Example 263, 5-{2-[(3-Fluorobenzyl)oxy]-6,7-dihydro-5H-cyclopenta[b]pyridin-4-yl}pyrimidin-2-amine] | 111 nM
N#Cc1cccc(COc2cc(-c3cncc(CO)n3)c3c(n2)CCC3)c1 [Example 270, 3-[({4-[6-(Hydroxymethyl)pyrazin-2-yl]-6,7-dihydro-5H-cyclopenta[b]pyridin-2-yl}oxy)methyl]benzonitrile] | 186 nM
Fc1ccc(COc2cc(-c3cncnc3)c3c(n2)CCC3)c(F)c1 [Example 18, 2-[(2,4-Difluorobenzyl)oxy]-4-(pyrimidin-5-yl)-6,7-dihydro-5H-cyclopenta[b]pyridine] | 105 nM
N#Cc1cccc(COc2cc(-c3cccnc3)c3c(n2)CCC3)c1 [Example 245, 3-({[4-(Pyridin-3-yl)-6,7-dihydro-5H-cyclopenta[b]pyridin-2-yl]oxy}methyl)benzonitrile] | 39 nM
Cc1ncc(-c2cc(OCc3nc(C#N)co3)nc3c2CCC3)cn1 [Example 267, 2-({[4-(2-Methylpyrimidin-5-yl)-6,7-dihydro-5H-cyclopenta[b]pyridin-2-yl]oxy}methyl)-1,3-oxazole-4-carbonitrile] | 55 nM
Cc1ncc(-c2cc(OCc3ccc(F)cn3)nc3c2CCCC3)cn1 [Example 186, 2-[(5-Fluoropyridin-2-yl)methoxy]-4-(2-methylpyrimidin-5-yl)-5,6,7,8-tetrahydroquinoline] | 26 nM
N#Cc1cc(COc2cc(-c3cncnc3)c3c(n2)CCCC3)ccn1 [Example 282, 4-({[4-(Pyrimidin-5-yl)-5,6,7,8-tetrahydroquinolin-2-yl]oxy}methyl)pyridine-2-carbonitrile] | 66 nM
N#Cc1ncc(-c2cc(OCc3cccc(F)n3)nc3c2CCC3)cn1 [Example 48, 5-{2-[(6-Fluoropyridin-2-yl)methoxy]-6,7-dihydro-5H-cyclopenta[b]pyridin-4-yl}pyrimidine-2-carbonitrile] | 72 nM

Next, values leading:

IC50 | SMILES
41.4 nM | c1ccc(COc2cc(-c3cnccn3)c3c(n2)CCCCC3)nc1 [Example 234, 4-(Pyrazin-2-yl)-2-(pyridin-2-ylmethoxy)-6,7,8,9-tetrahydro-5H-cyclohepta[b]pyridine hydrochloride]
112 nM | Cc1ccc(COc2cc(-c3cccnc3)c3c(n2)CCCC3)nc1 [Example 84, 2-[(5-Methylpyridin-2-yl)methoxy]-4-(pyridin-3-yl)-5,6,7,8-tetrahydroquinoline]
98.7 nM | CC(=O)c1cncc(-c2cc(OCc3ccccn3)nc3c2CCCC3)c1 [Example 115, 1-{5-[2-(Pyridin-2-ylmethoxy)-5,6,7,8-tetrahydroquinolin-4-yl]pyridin-3-yl}ethanone dihydrochloride]
122 nM | Cc1ncc(-c2cc(OCc3cccc(F)n3)nc3c2CCC3)cn1 [Example 39, 2-[(6-Fluoropyridin-2-yl)methoxy]-4-(2-methylpyrimidin-5-yl)-6,7-dihydro-5H-cyclopenta[b]pyridine]
144 nM | c1ccc(COc2cc(-c3cccnc3)c3c(n2)CCC3)nc1 [Example 1, 4-(Pyridin-3-yl)-2-(pyridin-2-ylmethoxy)-6,7-dihydro-5H-cyclopenta[b]pyridine dihydrochloride]
36.5 nM | Nc1cncc(-c2cc(OCc3ccccn3)nc3c2CCCC3)n1 [Example 206, 6-[2-(Pyridin-2-ylmethoxy)-5,6,7,8-tetrahydroquinolin-4-yl]pyrazin-2-amine hydrochloride]
92 nM | c1ccc(COc2cc(-c3cccnn3)c3c(n2)CCC3)nc1 [Example 271, 4-(Pyridazin-3-yl)-2-(pyridin-2-ylmethoxy)-6,7-dihydro-5H-cyclopenta[b]pyridine]
178 nM | Cc1ccnc(COc2cc(-c3cccnc3)c3c(n2)CCCC3)c1 [Example 85, 2-[(4-Methylpyridin-2-yl)methoxy]-4-(pyridin-3-yl)-5,6,7,8-tetrahydroquinoline]
24.3 nM | Clc1cncc(-c2cc(OCc3ccccn3)nc3c2CCCC3)n1 [Example 195, 4-(6-Chloropyrazin-2-yl)-2-(pyridin-2-ylmethoxy)-5,6,7,8-tetrahydroquinoline]
95 nM | Fc1ccc(COc2cc(-c3cccnc3F)c3c(n2)CCCC3)nc1 [Example 138, 4-(2-Fluoropyridin-3-yl)-2-[(5-fluoropyridin-2-yl)methoxy]-5,6,7,8-tetrahydroquinoline hydrochloride]
348 nM | CC(C)(O)c1cncc(-c2cc(OCc3ccccn3)nc3c2CCC3)n1 [Example 55, 2-{6-[2-(Pyridin-2-ylmethoxy)-6,7-dihydro-5H-cyclopenta[b]pyridin-4-yl]pyrazin-2-yl}propan-2-ol]
346 nM | Nc1cnc(-c2cc(OCc3ccccn3)nc3c2CCCC3)cn1 [Example 207, 5-[2-(Pyridin-2-ylmethoxy)-5,6,7,8-tetrahydroquinolin-4-yl]pyrazin-2-amine]
78 nM | Cc1ncc(-c2cc(OCc3ccc(F)cn3)nc3c2CCC3)cn1 [Example 40, 2-[(5-Fluoropyridin-2-yl)methoxy]-4-(2-methylpyrimidin-5-yl)-6,7-dihydro-5H-cyclopenta[b]pyridine hydrochloride]
20.4 nM | Fc1ncc(-c2cc(OCc3ccccn3)nc3c2CCCC3)cn1 [Example 167, 4-(2-Fluoropyrimidin-5-yl)-2-(pyridin-2-ylmethoxy)-5,6,7,8-tetrahydroquinoline hydrochloride]
11.4 nM | c1ccc(COc2cc(-c3cnccn3)c3c(n2)CCC3)nc1 [Example 53, 4-(Pyrazin-2-yl)-2-(pyridin-2-ylmethoxy)-6,7-dihydro-5H-cyclopenta[b]pyridine hydrochloride]
43 nM | CCc1cncc(-c2cc(OCc3ccccn3)nc3c2CCCC3)n1 [Example 202, 4-(6-Ethylpyrazin-2-yl)-2-(pyridin-2-ylmethoxy)-5,6,7,8-tetrahydroquinoline]
230 nM | OCc1cncc(-c2cc(OCc3ccccn3)nc3c2CCCC3)n1 [Example 204, {6-[2-(Pyridin-2-ylmethoxy)-5,6,7,8-tetrahydroquinolin-4-yl]pyrazin-2-yl}methanol]
